Experiments:
Experiment in all cases: NCI-60 one-dose screen
Assay type in all cases: cell-based
CCRF-CEM = conditions: Homo sapiens, Leukemia panel, single dose 10^−5 M, read-out: Growth inhibition %
A498 = conditions: Homo sapiens; A498, Renal Cancer panel; single dose 10^−5 M; read-out: Growth inhibition %
Description: (§1) The newly synthesized compounds were screened for their in vitro anticancer activity at the Developmental Therapeutic Program (DTP) of the National Cancer Institute (NCI). The screening involved a panel of 60 human tumor cell lines consisting of 9 tissue types to screen for potential anti-cancer agents. The primary screening of submitted compounds was performed by testing a single dose (10^−5 M) in the full NCI-60 panel. The detailed % inhibition by the tested compounds against the 60 cell lines is shown in Tables S1–S3 in the Supporting Information.

BT-549 = conditions: Homo sapiens; BT-549, Breast Cancer panel; single dose 10^−5 M; read-out: Growth inhibition %
Description: as §1

COLO 205 = conditions: Homo sapiens; COLO 205, Colon Cancer panel; single dose 10^−5 M; read-out: Growth inhibition %
Description: as §1

DU-145 = conditions: Homo sapiens; DU-145, Prostate Cancer panel; single dose 10^−5 M; read-out: Growth inhibition %
Description: as §1

EKVX = conditions: Homo sapiens, Non-small cell lung panel, single dose 10^−5 M, read-out: Growth inhibition %
Description: as §1

HCC-2998 = conditions: Homo sapiens; HCC-2998, Colon Cancer panel; single dose 10^−5 M; read-out: Growth inhibition %
Description: as §1

HCT-15 = conditions: Homo sapiens; HCT-15, Colon Cancer panel; single dose 10^−5 M; read-out: Growth inhibition %
Description: as §1

HT29 = conditions: Homo sapiens, HT-29; HT29, Colon Cancer panel; single dose 10^−5 M; read-out: Growth inhibition %
Description: as §1

K-562 = conditions: Homo sapiens, K562; K-562, Leukemia panel; single dose 10^−5 M; read-out: Growth inhibition %
Description: as §1

KM12 = conditions: Homo sapiens; KM12, Colon Cancer panel; single dose 10^−5 M; read-out: Growth inhibition %
Description: as §1

M14 = conditions: Homo sapiens; M14, Melanoma panel; single dose 10^−5 M; read-out: Growth inhibition %
Description: as §1

MALME-3M = conditions: Homo sapiens, Melanoma panel, single dose 10^−5 M, read-out: Growth inhibition %
Description: as §1

NCI-H226 = conditions: Homo sapiens; NCI-H226, Non-small cell lung panel; single dose 10^−5 M; read-out: Growth inhibition %
Description: as §1

OVCAR-5 = conditions: Homo sapiens; OVCAR-5, Ovarian Cancer panel; single dose 10^−5 M; read-out: Growth inhibition %
Description: as §1

OVCAR-8 = conditions: Homo sapiens; OVCAR-8, Ovarian Cancer panel; single dose 10^−5 M; read-out: Growth inhibition %
Description: as §1

PC-3 = conditions: Homo sapiens; PC-3, Prostate Cancer panel; single dose 10^−5 M; read-out: Growth inhibition %
Description: as §1

RPMI-8226 = conditions: Homo sapiens; RPMI-8226, Leukemia panel; single dose 10^−5 M; read-out: Growth inhibition %
Description: as §1

RXF 393 = conditions: Homo sapiens; RXF 393, Renal Cancer panel; single dose 10^−5 M; read-out: Growth inhibition %
Description: as §1

SF-295 = conditions: Homo sapiens; SF-295, CNS Cancer panel; single dose 10^−5 M; read-out: Growth inhibition %
Description: as §1

SF-539 = conditions: Homo sapiens; SF-539, CNS Cancer panel; single dose 10^−5 M; read-out: Growth inhibition %
Description: as §1

SK-MEL-2 = conditions: Homo sapiens; SK-MEL-2, Melanoma panel; single dose 10^−5 M; read-out: Growth inhibition %
Description: as §1

SK-MEL-5 = conditions: Homo sapiens; SK-MEL-5, Melanoma panel; single dose 10^−5 M; read-out: Growth inhibition %
Description: as §1

SK-OV-3 = conditions: Homo sapiens; SK-OV-3, Ovarian Cancer panel; single dose 10^−5 M; read-out: Growth inhibition %
Description: as §1

SNB-19 = conditions: Homo sapiens; SNB-19, CNS Cancer panel; single dose 10^−5 M; read-out: Growth inhibition %
Description: as §1

SR = conditions: Homo sapiens, Leukemia panel, single dose 10^−5 M, read-out: Growth inhibition %
Description: as §1

SW-620 = conditions: Homo sapiens; SW-620, Colon Cancer panel; single dose 10^−5 M; read-out: Growth inhibition %
Description: as §1

T-47D = conditions: Homo sapiens, T47D, Breast Cancer panel, single dose 10^−5 M, read-out: Growth inhibition %
Description: as §1

TK-10 = conditions: Homo sapiens; TK-10, Renal Cancer panel; single dose 10^−5 M; read-out: Growth inhibition %
Description: as §1

U251 = conditions: Homo sapiens, U-251; U251, CNS Cancer panel; single dose 10^−5 M; read-out: Growth inhibition %
Description: as §1

UACC-257 = conditions: Homo sapiens; UACC-257, Melanoma panel; single dose 10^−5 M; read-out: Growth inhibition %
Description: as §1

UACC-62 = conditions: Homo sapiens; UACC-62, Melanoma panel; single dose 10^−5 M; read-out: Growth inhibition %
Description: as §1

Row | Structure (SMILES) | inhibition at 10 µM (CCRF-CEM) | inhibition at 10 µM (A498) | inhibition at 10 µM (BT-549) | inhibition at 10 µM (COLO 205) | inhibition at 10 µM (DU-145) | inhibition at 10 µM (EKVX) | inhibition at 10 µM (HCC-2998) | inhibition at 10 µM (HCT-15) | inhibition at 10 µM (HT29) | inhibition at 10 µM (K-562) | inhibition at 10 µM (KM12) | inhibition at 10 µM (M14) | inhibition at 10 µM (MALME-3M) | inhibition at 10 µM (NCI-H226) | inhibition at 10 µM (OVCAR-5) | inhibition at 10 µM (OVCAR-8) | inhibition at 10 µM (PC-3) | inhibition at 10 µM (RPMI-8226) | inhibition at 10 µM (RXF 393) | inhibition at 10 µM (SF-295) | other results
1 | c1ccc(CNc2c3ccccc3nc3ccccc23)cc1 [Compound 1, Acridin-9-yl-benzyl-amine] | 61% | 83.4% | 27.2% | 92.7% | 51.4% | 51.9% | 61.8% | 75.4% | 81% | 87.7% | 69.5% | 67.7% | 62.6% | 48.3% | 54.3% | 73.9% | 62.8% | 92.3% | 58.1% | 62.4% | inhibition at 10 µM (SF-539): 76%; inhibition at 10 µM (SK-MEL-2): 39.2%; inhibition at 10 µM (SK-MEL-5): 36.9%; inhibition at 10 µM (SK-OV-3): 53.3%; inhibition at 10 µM (SNB-19): 60.6%; inhibition at 10 µM (SR): 88.3%; inhibition at 10 µM (SW-620): 75.5%; inhibition at 10 µM (T-47D): 62.2%; inhibition at 10 µM (TK-10): 51.3%; inhibition at 10 µM (U251): 61.5%; inhibition at 10 µM (UACC-257): 47.3%; inhibition at 10 µM (UACC-62): 39%
2 | Cc1ccccc1CNc1c2ccccc2nc2ccccc12 [Compound 2, Acridin-9-yl-(2-methylbenzyl)-amine] | 82.4% | 102% | 44.1% | 119% | 69.4% | 61.6% | 83.8% | 85.4% | 91.1% | 95% | 83.1% | 86.8% | 84.8% | 68.5% | 63.3% | 79% | 74.4% | 109% | 92.2% | 70.5% | inhibition at 10 µM (SF-539): 96.7%; inhibition at 10 µM (SK-MEL-2): 59.9%; inhibition at 10 µM (SK-MEL-5): 66.1%; inhibition at 10 µM (SK-OV-3): 59.2%; inhibition at 10 µM (SNB-19): 72.9%; inhibition at 10 µM (SR): 97.3%; inhibition at 10 µM (SW-620): 86.2%; inhibition at 10 µM (T-47D): 75.5%; inhibition at 10 µM (TK-10): 61.4%; inhibition at 10 µM (U251): 78.7%; inhibition at 10 µM (UACC-257): 67.3%; inhibition at 10 µM (UACC-62): 53.3%
3 | Cc1cccc(CNc2c3ccccc3nc3ccccc23)c1 [Compound 3, Acridin-9-yl-(3-methylbenzyl)-amine] | 85.2% | 102% | 32.7% | 116% | 66.1% | 55.5% | 96.4% | 84.1% | 94.8% | 98.1% | 74.4% | 77.2% | 85.9% | 59.4% | 64.2% | 79.7% | 75.1% | 120% | 102% | 74.7% | inhibition at 10 µM (SF-539): 88.3%; inhibition at 10 µM (SK-MEL-2): 62%; inhibition at 10 µM (SK-MEL-5): 80.2%; inhibition at 10 µM (SK-OV-3): 54.7%; inhibition at 10 µM (SNB-19): 70.3%; inhibition at 10 µM (SR): 103%; inhibition at 10 µM (SW-620): 82.8%; inhibition at 10 µM (T-47D): 74.7%; inhibition at 10 µM (TK-10): 61.6%; inhibition at 10 µM (U251): 76.3%; inhibition at 10 µM (UACC-257): 63.8%; inhibition at 10 µM (UACC-62): 57.2%
4 | Cc1ccc(CNc2c3ccccc3nc3ccccc23)cc1 [Compound 4, Acridin-9-yl-(4-methylbenzyl)-amine] | 79.1% | 92.4% | 28.7% | 99.7% | 66.5% | 62.1% | 103% | 84.4% | 89.7% | 97% | 76.5% | 72% | 83.8% | 58.5% | 61.9% | 78.2% | 75.7% | 111% | 89.7% | 68.7% | inhibition at 10 µM (SF-539): 81.9%; inhibition at 10 µM (SK-MEL-2): 57.3%; inhibition at 10 µM (SK-MEL-5): 69.9%; inhibition at 10 µM (SK-OV-3): 53.1%; inhibition at 10 µM (SNB-19): 70.3%; inhibition at 10 µM (SR): 101%; inhibition at 10 µM (SW-620): 79.8%; inhibition at 10 µM (T-47D): 71.9%; inhibition at 10 µM (TK-10): 64.2%; inhibition at 10 µM (U251): 74%; inhibition at 10 µM (UACC-257): 60.6%; inhibition at 10 µM (UACC-62): 56.6%
5 | COc1ccccc1CNc1c2ccccc2nc2ccccc12 [Compound 5, Acridin-9-yl-(2-methoxybenzyl)-amine] | 62.5% | 86.7% | 23% | 87.2% | 49.5% | 34.3% | 61.1% | 74% | 82.3% | 89.9% | 67.1% | 59.1% | 54.1% | 60.1% | 50.2% | 68.1% | 56.8% | 91.9% | 69.4% | 62.6% | inhibition at 10 µM (SF-539): 78.8%; inhibition at 10 µM (SK-MEL-2): 26.5%; inhibition at 10 µM (SK-MEL-5): 40.8%; inhibition at 10 µM (SK-OV-3): 38.6%; inhibition at 10 µM (SNB-19): 64.2%; inhibition at 10 µM (SR): 90.1%; inhibition at 10 µM (SW-620): 77.9%; inhibition at 10 µM (T-47D): 53.8%; inhibition at 10 µM (TK-10): 44.5%; inhibition at 10 µM (U251): 61.4%; inhibition at 10 µM (UACC-257): 35.9%; inhibition at 10 µM (UACC-62): 39.5%

— paper PMC9866191, “Novel 9-Benzylaminoacridine Derivatives as Dual Inhibitors of Phosphodiesterase 5 and Topoisomerase II for the Treatment of Colon Cancer” (Molecules, 2023)
